Laboratory results taken from ChEMBL document CHEMBL6103648, “AI-Driven Discovery of Highly Specific and Efficacious hCES2A Inhibitors for Ameliorating Irinotecan-Triggered Gut Toxicity” (J Med Chem, 2025).
Values after ≈ are worked out from the molar mass of the structure shown. Active and inactive are the calls of the source. The calls are words filed in the database; no cut-off is given here.

What was measured:
[1] = Inhibition of human CES2A using fluorescein diacetate as substrate preincubated for 3 mins followed by substrate addition measured after 30 mins by fluorescence based assay
Homo sapiens = organism: Homo sapiens; assay: Covalent binding affinity to human CES2A Ser228 catalytic site assessed as covalent modification at 10 uM incubated for 4 hrs by nano-LC-MS/MS analysis
[2] = Inhibition of human CES1A using NLMe as substrate incubated for 3 mins by chemiluminescence analysis
Cholinesterase = Cholinesterase (Homo sapiens, UniProt P06276); assay: Inhibition of human BuChE using BTCI as substrate incubated for 3 mins by Ellman's method
Cholinesterase, sequence (P06276 whole entry): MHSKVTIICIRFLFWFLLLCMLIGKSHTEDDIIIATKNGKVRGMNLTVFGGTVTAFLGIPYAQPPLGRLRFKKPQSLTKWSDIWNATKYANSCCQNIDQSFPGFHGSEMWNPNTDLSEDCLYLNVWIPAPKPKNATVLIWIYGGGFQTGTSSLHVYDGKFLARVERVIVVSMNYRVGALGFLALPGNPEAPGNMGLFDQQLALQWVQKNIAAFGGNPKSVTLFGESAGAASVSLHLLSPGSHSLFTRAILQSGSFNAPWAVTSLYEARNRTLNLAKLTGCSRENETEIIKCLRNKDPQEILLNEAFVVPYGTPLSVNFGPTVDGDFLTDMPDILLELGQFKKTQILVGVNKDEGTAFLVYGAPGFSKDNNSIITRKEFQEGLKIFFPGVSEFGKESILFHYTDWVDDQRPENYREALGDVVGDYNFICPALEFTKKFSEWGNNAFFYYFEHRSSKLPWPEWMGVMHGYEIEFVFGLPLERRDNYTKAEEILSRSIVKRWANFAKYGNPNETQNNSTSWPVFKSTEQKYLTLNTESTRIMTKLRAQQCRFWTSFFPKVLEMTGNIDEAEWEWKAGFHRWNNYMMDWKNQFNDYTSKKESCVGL

Acetylcholinesterase = Acetylcholinesterase (Homo sapiens, UniProt P22303); assay: Inhibition of human AChE using ATCI as substrate incubated for 3 mins by Ellman's method
Acetylcholinesterase, sequence (P22303 whole entry): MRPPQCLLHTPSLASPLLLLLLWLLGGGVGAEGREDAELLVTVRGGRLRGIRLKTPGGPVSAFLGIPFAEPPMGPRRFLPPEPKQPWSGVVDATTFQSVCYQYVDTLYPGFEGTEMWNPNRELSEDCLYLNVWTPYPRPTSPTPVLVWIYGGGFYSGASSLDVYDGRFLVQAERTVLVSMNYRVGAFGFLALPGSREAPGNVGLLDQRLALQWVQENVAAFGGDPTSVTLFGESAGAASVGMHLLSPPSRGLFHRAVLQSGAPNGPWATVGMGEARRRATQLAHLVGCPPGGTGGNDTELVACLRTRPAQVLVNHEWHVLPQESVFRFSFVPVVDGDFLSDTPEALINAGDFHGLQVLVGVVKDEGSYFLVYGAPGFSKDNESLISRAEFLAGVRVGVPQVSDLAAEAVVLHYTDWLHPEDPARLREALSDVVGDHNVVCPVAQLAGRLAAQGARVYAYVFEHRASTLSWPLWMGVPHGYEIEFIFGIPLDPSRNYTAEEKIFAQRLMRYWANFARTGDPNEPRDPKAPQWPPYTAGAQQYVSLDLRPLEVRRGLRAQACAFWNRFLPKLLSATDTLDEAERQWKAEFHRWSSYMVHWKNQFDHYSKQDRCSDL

[3] = biological target: T1, Palmitoleoyl-protein carboxylesterase NOTUM (Homo sapiens, UniProt Q6P988); assay: Inhibition of human Notum using OPTS as substrate preincubated for 1 min followed by substrate addition by fluorescence based assay
T1 sequence (Q6P988 whole entry): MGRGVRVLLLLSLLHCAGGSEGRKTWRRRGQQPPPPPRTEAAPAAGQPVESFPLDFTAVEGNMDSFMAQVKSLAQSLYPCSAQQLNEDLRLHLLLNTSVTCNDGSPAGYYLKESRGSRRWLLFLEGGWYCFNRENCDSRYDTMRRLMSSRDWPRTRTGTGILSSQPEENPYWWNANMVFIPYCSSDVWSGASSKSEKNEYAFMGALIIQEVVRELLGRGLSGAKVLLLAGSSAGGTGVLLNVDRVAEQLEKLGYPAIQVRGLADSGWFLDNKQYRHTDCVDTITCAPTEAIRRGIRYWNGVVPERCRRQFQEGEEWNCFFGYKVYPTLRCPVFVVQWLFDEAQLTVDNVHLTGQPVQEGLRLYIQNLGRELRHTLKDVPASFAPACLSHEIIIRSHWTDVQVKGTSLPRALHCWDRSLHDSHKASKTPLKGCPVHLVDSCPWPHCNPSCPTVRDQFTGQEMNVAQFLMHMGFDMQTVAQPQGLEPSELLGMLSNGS

[4] = Permeability across basal to apical side in human Caco-2 cells assessed as cumulative penetration amount at 100 uM incubated for 120 mins by UPLC-MS/MS analysis; assay type: ADME, cell-based; settings: caco-2, 2 h
[5] = Apparent permeability across apical to basal side in human Caco-2 cells at 100 uM incubated for 120 mins by UPLC-MS/MS analysis; assay type: ADME, cell-based
[6] = Apparent permeability across basal to apical side in human Caco-2 cells at 50 uM incubated for 120 mins by UPLC-MS/MS analysis; assay type: ADME, cell-based
[7] = Efflux ratio of apparent permeability across basal to apical side over apical to basal side in human Caco-2 cells at 100 uM incubated for 120 mins by UPLC-MS/MS analysis; assay type: ADME, cell-based
[8] = (§1) Inhibition of CES2A in human HepG2 cells using NCEN as substrate assessed as decrease in green fluorescence preincubated fir 1 hr followed by substrate addition measured after 45 mins by Hoechst33342 staining based analysis; assay type: cell-based
HepG2 = assay: as §1; assay type: cell-based; settings: time 105.0 min
[9] = Aqueous solubility of compound by UPLC-MS/MS analysis; assay type: physicochemical; settings: buffer
Cytochrome P450 2C19 = Cytochrome P450 2C19 (Homo sapiens, UniProt P33261); assay: Inhibition of CYP2C19 in human liver microsomes using omeprazole as substrate upto 10 uM; assay type: ADME, Microsome
Cytochrome P450 2C19, sequence (P33261 whole entry): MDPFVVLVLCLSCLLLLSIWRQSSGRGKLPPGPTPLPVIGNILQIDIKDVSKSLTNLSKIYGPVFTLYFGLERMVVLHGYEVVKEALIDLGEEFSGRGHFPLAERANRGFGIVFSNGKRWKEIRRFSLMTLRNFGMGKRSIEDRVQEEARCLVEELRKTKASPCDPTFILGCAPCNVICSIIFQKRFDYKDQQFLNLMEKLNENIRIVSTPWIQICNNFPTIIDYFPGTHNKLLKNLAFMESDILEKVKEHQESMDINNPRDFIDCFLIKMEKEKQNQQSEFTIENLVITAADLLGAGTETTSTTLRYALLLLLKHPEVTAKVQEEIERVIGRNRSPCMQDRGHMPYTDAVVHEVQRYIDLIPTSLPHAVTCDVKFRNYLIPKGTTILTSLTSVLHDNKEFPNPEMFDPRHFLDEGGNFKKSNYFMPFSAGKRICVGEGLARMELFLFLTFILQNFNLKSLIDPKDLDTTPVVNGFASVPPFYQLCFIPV

[10] = Sub-acute toxicity in C57BL/6J mouse assessed as change in mental state at 100 mg/kg/day, po treated for 14 days consecutively; assay type: organism-based; settings: in vivo, 336 h, time 14 day
[11] = Sub-acute toxicity in C57BL/6J mouse assessed as abnormality in stomach at 100 mg/kg/day, po treated for 14 days consecutively by H and E staining based analysis; assay type: organism-based; settings: in vivo, 336 h, time 14 day
[12] = Drug distribution in jejunum of C57BL/6J mouse at 100 mg/kg, po administered as single dose measured for 0.5 to 3 hrs by UHPLC-Q-Orbitrap HRMS analysis; assay type: ADME, organism-based; settings: in vivo, time 0.5-3 hrs
Mus musculus [13] = assay: Inhibition of irinotecan-triggered gut toxicity in C57BL/6J mouse bearing tumor cells assessed as decrease in DAI score at 25 to 50 mg/kg/day, po treated for 14 days; assay type: functional, organism-based; settings: dose 25-50 mg/kg/day, time 14.0 day
Mus musculus [14] = assay: Inhibition of irinotecan-triggered gut toxicity in C57BL/6J mouse bearing tumor cells assessed as decrease in IL-6 level in colon tissue administered orally treated for 14 days; assay type: functional, organism-based; settings: dose 25-50 mg/kg/day, route po, time 14.0 day
Mus musculus [15] = assay: Inhibition of irinotecan-triggered gut toxicity in C57BL/6J mouse bearing tumor cells assessed as decrease in IL-1beta level in colon tissue administered orally treated for 14 days; assay type: functional, organism-based; settings: dose 25-50 mg/kg/day, route po, time 14.0 day
Mus musculus [16] = assay: Inhibition of irinotecan-triggered gut toxicity in C57BL/6J mouse bearing tumor cells assessed as decrease in serum AST level at 25 to 50 mg/kg/day, po treated for 14 days; assay type: functional, organism-based; settings: dose 25-50 mg/kg/day, time 14.0 day
Mus musculus [17] = assay: Inhibition of irinotecan-induced anti-tumor activity in C57BL/6J mouse bearing tumor cells assessed as increase in tumor volume at 25 to 50 mg/kg/day, po treated for 14 days; assay type: functional, organism-based; settings: dose 25-50 mg/kg/day, time 14.0 day
Mus musculus [18] = assay: Inhibition of irinotecan-induced anti-tumor activity in C57BL/6J mouse bearing tumor cells assessed as increase in tumor weight at 25 to 50 mg/kg/day, po treated for 14 days; assay type: functional, organism-based; settings: dose 25-50 mg/kg/day, time 14.0 day

CCN(C)C(=O)Oc1ccc(C(=O)N2CCC(Cc3ccccc3)CC2)cc1OC
IC50 [1]: 0.00069 µM
Activity (Homo sapiens): Active; Compound Exhibited As Covalent Inhibitor
IC50 [2]: 4.4 µM
IC50 (Cholinesterase): 3.06 µM
IC50 (Acetylcholinesterase): > 10 µM
IC50 [3]: > 10 µM
Activity [4]: 6.29 µM
Papp A→B at 2 h, 100 µM [5]: 11.7 ×10⁻⁶ cm/s
Papp B→A at 2 h, 50 µM [6]: 10.5 ×10⁻⁶ cm/s
efflux ratio at 2 h, 100 µM [7]: 0.66
IC50 [8]: 0.00036 µM
inhibition (HepG2): Dose-dependent-effect
solubility [9]: 32 µg/mL (≈ 78 µM)
inhibition (INH) (Cytochrome P450 2C19): Not_active
Activity [10]: Non-toxic
Activity [11]: Non-toxic
Drug uptake [12]: Active
inhibition (Mus musculus [13]): Active
inhibition (Mus musculus [14]): Active
inhibition (Mus musculus [15]): Active
inhibition (Mus musculus [16]): Active
inhibition (Mus musculus [17]): inactive
inhibition (Mus musculus [18]): inactive
